# US20170190671A1, “BIS(ARYL)CATECHOL DERIVATIVES AS HERBICIDES” (E I DU PONT DE NEMOURS AND COMPANY, priority 2014, published 2017)
# Assays:
# Format in all cases: in vivo
# [1] = system: giant foxtail (Setaria faberii); assay: Test C preemergence; settings: Setaria faberi, pre-emergence, 336 h, preemergence, scale 0 to 100, read-out: Plant response rating, Foxtail, Giant
# Outline: (§1)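 Visual ratings (0 none to 100 complete control) were made 13 to 15 days after treatment, relative to controls. Test chemicals, formulated in a non-phytotoxic solvent mixture with surfactant, were applied in the greenhouse preemergence to seeded loam-sand soil or postemergence to plants 2 to 18 cm tall.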
# [2] = system: waterhemp (common waterhemp, Amaranthus rudis); assay: Test C preemergence; settings: Amaranthus tuberculatus, pre-emergence, preemergence, scale 0 to 100, read-out: Plant response rating, Waterhemp
# Outline: as §1
# [3] = system: winter wheat (Triticum aestivum); assay: Test C preemergence; settings: Triticum aestivum, pre-emergence, 336 h, preemergence, scale 0 to 100, read-out: Plant response rating, Wheat
# Outline: as §1
# [4] = system: velvetleaf (Abutilon theophrasti); assay: Test C preemergence; settings: Abutilon theophrasti, pre-emergence, preemergence, scale 0 to 100, read-out: Plant response rating, Velvetleaf
# Outline: as §1
# [5] = system: oilseed rape (Brassica napus); assay: Test C preemergence; settings: Brassica napus, pre-emergence, preemergence, scale 0 to 100, read-out: Plant response rating, Oilseed Rape
# Outline: as §1
# [6] = system: pigweed (Amaranthus retroflexus); assay: Test C preemergence; settings: Amaranthus retroflexus, pre-emergence, 336 h, preemergence, scale 0 to 100, read-out: Plant response rating, Pigweed
# Outline: as §1
# [7] = system: Italian ryegrass (Lolium multiflorum); assay: Test C preemergence; settings: Lolium multiflorum, pre-emergence, 336 h, preemergence, scale 0 to 100, read-out: Plant response rating, Ryegrass, Italian
# Outline: as §1
# [8] = system: johnsongrass (Sorghum halepense); assay: Test C preemergence; settings: Sorghum halepense, pre-emergence, 336 h, preemergence, scale 0 to 100, read-out: Plant response rating, Johnsongrass
# Outline: as §1
# [9] = system: corn (Zea mays); assay: Test C preemergence; settings: Zea mays, pre-emergence, 336 h, preemergence, scale 0 to 100
# Outline: as §1
# [10] = system: ragweed (common ragweed, Ambrosia elatior); assay: Test C preemergence; settings: Ambrosia artemisiifolia, pre-emergence, 336 h, preemergence, scale 0 to 100, read-out: Plant response rating, Ragweed
# Outline: as §1
# [11] = system: large (Lg) crabgrass (Digitaria sanguinalis); assay: Test C preemergence; settings: Digitaria sanguinalis, pre-emergence, 336 h, preemergence, scale 0 to 100, read-out: Plant response rating, Crabgrass, Large
# Outline: as §1
# [12] = system: morningglory (Ipomoea coccinea); assay: Test C preemergence; settings: Ipomoea, pre-emergence, 336 h, preemergence, scale 0 to 100, read-out: Plant response rating, Morningglory
# Outline: as §1
# [13] = system: yellow nutsedge (Cyperus esculentus); assay: Test C preemergence; settings: Cyperus, pre-emergence, 336 h, preemergence, scale 0 to 100, read-out: Plant response rating, Nutsedge, Yellow
# Outline: as §1
# [14] = system: galium (catchweed bedstraw, Galium aparine); assay: Test C preemergence; settings: Galium, pre-emergence, 336 h, preemergence, scale 0 to 100, read-out: Plant response rating, Galium
# Outline: as §1
# [15] = system: soybean (Glycine max); assay: Test C preemergence; settings: Glycine max, pre-emergence, preemergence, scale 0 to 100, read-out: Plant response rating, Soybean
# Outline: as §1
# [16] = system: blackgrass (Alopecurus myosuroides); assay: Test C preemergence; settings: Alopecurus myosuroides, pre-emergence, 336 h, preemergence, scale 0 to 100, read-out: Plant response rating, Blackgrass
# Outline: as §1
# [17] = system: giant foxtail (Setaria faberii); assay: Test C postemergence; settings: Setaria faberi, post-emergence, 336 h, Postemergence, scale 0 to 100, read-out: Plant response rating, Foxtail, Giant
# Outline: as §1
# [18] = system: velvetleaf (Abutilon theophrasti); assay: Test C postemergence; settings: Abutilon theophrasti, post-emergence, Postemergence, scale 0 to 100, read-out: Plant response rating, Velvetleaf
# Outline: as §1
# [19] = system: chickweed (common chickweed, Stellaria media); assay: Test C postemergence; settings: Stellaria media, post-emergence, Postemergence, scale 0 to 100, read-out: Plant response rating, Chickweed
# Outline: as §1
# [20] = system: lambsquarters (Chenopodium album); assay: Test C postemergence; settings: Chenopodium album, post-emergence, 336 h, Postemergence, scale 0 to 100, read-out: Plant response rating, Lambsquarters
# Outline: as §1
# [21] = system: yellow nutsedge (Cyperus esculentus); assay: Test C postemergence; settings: Cyperus, post-emergence, 336 h, Postemergence, scale 0 to 100, read-out: Plant response rating, Nutsedge, Yellow
# Outline: as §1
# [22] = system: blackgrass (Alopecurus myosuroides); assay: Test C postemergence; settings: Alopecurus myosuroides, post-emergence, 336 h, Postemergence, scale 0 to 100, read-out: Plant response rating, Blackgrass
# Outline: as §1
smiles,measurement,setting,value
"Fc1cnc(Oc2c(Cl)cccc2Oc2ncc(Cl)cn2)nc1 [Compound 18, 5-chloro-2-[5-chloro-6-[(5-fluoro-2-pyrimidinyl)oxy]phenoxy]pyrimidine]",pest or weed control at 31 g/ha,[1]; 31 g ai/ha,98%
same,pest or weed control at 62 g/ha,[1]; 62 g ai/ha,100%
same,pest or weed control at 125 g/ha,[1]; 125 g ai/ha,100%
same,pest or weed control at 31 g/ha,[2]; 31 g ai/ha,100%
same,pest or weed control at 62 g/ha,[2]; 62 g ai/ha,100%
same,pest or weed control at 125 g/ha,[2]; 125 g ai/ha,100%
same,pest or weed control at 250 g/ha,[2]; 250 g ai/ha,100%
same,plant injury at 31 g/ha,[3]; 31 g ai/ha,0%
same,plant injury at 62 g/ha,[3]; 62 g ai/ha,15%
same,plant injury at 125 g/ha,[3]; 125 g ai/ha,70%
same,plant injury at 250 g/ha,[3]; 250 g ai/ha,85%
same,pest or weed control at 31 g/ha,[4]; 31 g ai/ha,85%
same,pest or weed control at 62 g/ha,[4]; 62 g ai/ha,100%
same,pest or weed control at 125 g/ha,[4]; 125 g ai/ha,100%
same,pest or weed control at 250 g/ha,[4]; 250 g ai/ha,100%
same,plant injury at 31 g/ha,[5]; 31 g ai/ha,100%
same,plant injury at 62 g/ha,[5]; 62 g ai/ha,100%
same,plant injury at 125 g/ha,[5]; 125 g ai/ha,100%
same,plant injury at 250 g/ha,[5]; 250 g ai/ha,100%
same,pest or weed control at 31 g/ha,[6]; 31 g ai/ha,100%
same,pest or weed control at 62 g/ha,[6]; 62 g ai/ha,100%
same,pest or weed control at 125 g/ha,[6]; 125 g ai/ha,100%
same,pest or weed control at 31 g/ha,[7]; 31 g ai/ha,30%
same,pest or weed control at 62 g/ha,[7]; 62 g ai/ha,70%
same,pest or weed control at 125 g/ha,[7]; 125 g ai/ha,85%
same,pest or weed control at 250 g/ha,[7]; 250 g ai/ha,95%
same,pest or weed control at 31 g/ha,[8]; 31 g ai/ha,50%
same,pest or weed control at 62 g/ha,[8]; 62 g ai/ha,70%
same,pest or weed control at 125 g/ha,[8]; 125 g ai/ha,90%
same,"Corn plant response rating (crop injury, 0 = no effect, 100 = complete kill) at 31 g/ha",[9]; 31 g ai/ha,10%
same,"Corn plant response rating (crop injury, 0 = no effect, 100 = complete kill) at 62 g/ha",[9]; 62 g ai/ha,40%
same,"Corn plant response rating (crop injury, 0 = no effect, 100 = complete kill) at 125 g/ha",[9]; 125 g ai/ha,60%
same,pest or weed control at 31 g/ha,[10]; 31 g ai/ha,85%
same,pest or weed control at 62 g/ha,[10]; 62 g ai/ha,100%
same,pest or weed control at 125 g/ha,[10]; 125 g ai/ha,95%
same,pest or weed control at 250 g/ha,[10]; 250 g ai/ha,95%
same,pest or weed control at 31 g/ha,[11]; 31 g ai/ha,100%
same,pest or weed control at 62 g/ha,[11]; 62 g ai/ha,100%
same,pest or weed control at 125 g/ha,[11]; 125 g ai/ha,100%
same,pest or weed control at 31 g/ha,[12]; 31 g ai/ha,10%
same,pest or weed control at 62 g/ha,[12]; 62 g ai/ha,60%
same,pest or weed control at 125 g/ha,[12]; 125 g ai/ha,70%
same,pest or weed control at 31 g/ha,[13]; 31 g ai/ha,0%
same,pest or weed control at 62 g/ha,[13]; 62 g ai/ha,25%
same,pest or weed control at 125 g/ha,[13]; 125 g ai/ha,25%
same,pest or weed control at 31 g/ha,[14]; 31 g ai/ha,100%
same,pest or weed control at 62 g/ha,[14]; 62 g ai/ha,100%
same,pest or weed control at 125 g/ha,[14]; 125 g ai/ha,100%
same,plant injury at 31 g/ha,[15]; 31 g ai/ha,60%
same,plant injury at 62 g/ha,[15]; 62 g ai/ha,80%
same,plant injury at 125 g/ha,[15]; 125 g ai/ha,90%
same,plant injury at 250 g/ha,[15]; 250 g ai/ha,90%
same,pest or weed control at 31 g/ha,[16]; 31 g ai/ha,15%
same,pest or weed control at 62 g/ha,[16]; 62 g ai/ha,90%
same,pest or weed control at 125 g/ha,[16]; 125 g ai/ha,95%
same,pest or weed control at 31 g/ha,[17]; 31 g ai/ha,15%
same,pest or weed control at 62 g/ha,[17]; 62 g ai/ha,5%
same,pest or weed control at 125 g/ha,[17]; 125 g ai/ha,25%
same,pest or weed control at 250 g/ha,[17]; 250 g ai/ha,45%
same,pest or weed control at 31 g/ha,[18]; 31 g ai/ha,45%
same,pest or weed control at 62 g/ha,[18]; 62 g ai/ha,60%
same,pest or weed control at 125 g/ha,[18]; 125 g ai/ha,70%
same,pest or weed control at 250 g/ha,[18]; 250 g ai/ha,85%
same,pest or weed control at 31 g/ha,[19]; 31 g ai/ha,50%
same,pest or weed control at 62 g/ha,[19]; 62 g ai/ha,55%
same,pest or weed control at 125 g/ha,[19]; 125 g ai/ha,80%
same,pest or weed control at 250 g/ha,[19]; 250 g ai/ha,95%
same,pest or weed control at 31 g/ha,[20]; 31 g ai/ha,65%
same,pest or weed control at 62 g/ha,[20]; 62 g ai/ha,90%
same,pest or weed control at 125 g/ha,[20]; 125 g ai/ha,95%
same,pest or weed control at 250 g/ha,[20]; 250 g ai/ha,95%
same,pest or weed control at 31 g/ha,[21]; 31 g ai/ha,5%
same,pest or weed control at 62 g/ha,[21]; 62 g ai/ha,10%
same,pest or weed control at 125 g/ha,[21]; 125 g ai/ha,10%
same,pest or weed control at 250 g/ha,[21]; 250 g ai/ha,10%
same,pest or weed control at 31 g/ha,[22]; 31 g ai/ha,0%
same,pest or weed control at 62 g/ha,[22]; 62 g ai/ha,5%
same,pest or weed control at 125 g/ha,[22]; 125 g ai/ha,5%
same,pest or weed control at 250 g/ha,[22]; 250 g ai/ha,45%
